# Source: patent US20070128217A1 (priority 2003, published 2007)
# Columns and labels:
# [1] = test system: control sera (pooled serum of ten healthy LUMC hospital workers; commercial negative donor pooled serum from the Dutch bloodbank); format: binding, human; set-up: Binding of Control serum LUMC to linear peptides / Binding of Control serum Blood-bank to linear peptides / Binding of Control serum LUMC to looped peptides / Binding of Control Serum Blood-Bank to Looped peptides / Binding of Control serum LUMC to linear peptides of the protein M of SARS-CoV Urbani / Binding of Control serum Blood-bank to linear peptides of the protein M of SARS-CoV Urbani / Binding of Control serum LUMC to looped peptides of the protein M of SARS-CoV Urbani / Binding of Control Serum Blood-Bank to Looped peptides of the protein M of SARS-CoV Urbani: unit not given here
# [2] = test system: rabbit serum obtained by immunizing a rabbit with the SARS-CoV strain Frankfurt 1; format: binding; set-up: Binding of a rabbit serum to linear peptides / Binding of a rabbit serum to looped peptides / Rabbit serum linear peptides / Rabbit serum looped peptides / Binding of a rabbit serum to linear peptides of protein N of SARS-CoV Urbani (Rabbit serum linear peptides) / Binding of a rabbit serum to looped/cyclic peptides of protein N of SARS-CoV Urbani (Rabbit serum looped peptides): unit not given here
# [3] = test system: antibodies in sera from SARS patients (sera 1a, 1b, 2, 6, 37, 62, London, SARS-yellow, SARS-green); format: binding, human; set-up: Binding of serum 6 to linear peptides of protein X1 of SARS-CoV Urbani / Binding of serum 37 to linear peptides of protein X1 of SARS-CoV Urbani / Binding of serum 6 to looped/cyclic peptide (PEPSCAN-ELISA) / Binding of serum 37 to looped/cyclic peptide (PEPSCAN-ELISA) / Binding of serum 37 to looped/cyclic peptides of protein X1 of SARS-CoV Urbani / Binding of serum 6 to linear peptides of protein X2 / Binding of serum 37 to linear peptides of protein X2 / Binding of serum 37 to looped/cyclic peptides of protein X2 of SARS-CoV Urbani / Binding of serum 6 to linear peptides of protein M of SARS-CoV Urbani / Binding of serum 37 to linear peptides of protein M of SARS-CoV Urbani / Binding of serum 6 to looped/cyclic peptides of protein M of SARS-CoV Urbani / Binding of serum 37 to looped/cyclic peptides of protein M of SARS-CoV Urbani / Binding of serum 6 to linear peptides of protein X3 of SARS-CoV Urbani / Binding of serum 37 to linear peptides of protein X3 of SARS-CoV Urbani / Binding of serum 37 to looped/cyclic peptides of protein X3 of SARS-CoV Urbani / Binding of serum 6 to linear peptides of protein X4 of SARS-CoV Urbani / Binding of serum 37 to linear peptides of protein X4 of SARS-CoV Urbani / Binding of serum 37 to looped/cyclic peptides of protein X4 of SARS-CoV Urbani / Binding of serum 6 to linear peptides of protein X5 of SARS-CoV Urbani / Binding of serum 37 to linear peptides of protein X5 of SARS-CoV Urbani / Binding of serum 37 to looped/cyclic peptides of protein X5 of SARS-CoV Urbani / Binding of serum 6 to linear peptides of protein N of SARS-CoV Urbani / Binding of serum 37 to linear peptides of protein N of SARS-CoV Urbani / Binding of serum 6 to linear peptide (PEPSCAN-ELISA) / Binding of serum 1a to looped/cyclic peptides of protein N of SARS-CoV Urbani / Binding of serum 1b to looped/cyclic peptides of protein N of SARS-CoV Urbani / Binding of serum 2 to looped/cyclic peptides of protein N of SARS-CoV Urbani / Binding of serum 6 to looped/cyclic peptides of protein N of SARS-CoV Urbani / Binding of serum 37 to looped/cyclic peptides of protein N of SARS-CoV Urbani / Binding of serum 62 to looped/cyclic peptides of protein N of SARS-CoV Urbani / Binding of serum London to looped/cyclic peptides of protein N of SARS-CoV Urbani / Binding of serum SARS-green to looped/cyclic peptides of protein N of SARS-CoV Urbani: unit not given here
sequence,measurement,setting,value
SLPFGWLVIGVAFLA,Binding of Control Serum Blood-Bank to Looped peptides,[1],0.4
same,Binding of Control serum Blood-bank to linear peptides,[1],0.6
same,Binding of Control serum LUMC to linear peptides,[1],0.6
same,Binding of Control serum LUMC to looped peptides,[1],0.3
same,Binding of a rabbit serum to linear peptides,[2],0.4
same,Binding of a rabbit serum to looped peptides,[2],0.1
same,Binding of serum 1a to linear peptides of protein X1 of SARS-CoV Urbani,[3],0.7
same,Binding of serum 1a to looped/cyclic peptide (PEPSCAN-ELISA),[3],0.3
same,Binding of serum 1b to linear peptides of protein X1 of SARS-CoV Urbani,[3],0.6
same,Binding of serum 1b to looped/cyclic peptide (PEPSCAN-ELISA),[3],0.2
same,Binding of serum 2 to linear peptides of protein X1 of SARS-CoV Urbani,[3],0.5
same,Binding of serum 2 to looped/cyclic peptide (PEPSCAN-ELISA),[3],0.2
same,Binding of serum 6 to linear peptides of protein X1 of SARS-CoV Urbani,[3],0.4
same,Binding of serum 6 to looped/cyclic peptide (PEPSCAN-ELISA),[3],0.0
same,Binding of serum 37 to linear peptides of protein X1 of SARS-CoV Urbani,[3],0.6
same,Binding of serum 37 to looped/cyclic peptide (PEPSCAN-ELISA),[3],0.3
same,Binding of serum 62 to linear peptides of protein X1 of SARS-CoV Urbani,[3],0.5
same,Binding of serum 62 to looped/cyclic peptide (PEPSCAN-ELISA),[3],0.3
same,Binding of serum London to linear peptides of protein X1 of SARS-CoV Urbani,[3],0.2
same,Binding of serum London to looped/cyclic peptide (PEPSCAN-ELISA),[3],0.2
same,Binding of serum SARS-green to linear peptides of protein X1 of SARS-CoV Urbani,[3],0.2
same,Binding of serum SARS-green to looped/cyclic peptide (PEPSCAN-ELISA),[3],0.3
same,Binding of serum SARS-yellow to linear peptides of protein X1 of SARS-CoV Urbani,[3],0.4
same,Binding of serum SARS-yellow to looped/cyclic peptide (PEPSCAN-ELISA),[3],0.2
TYQLRARSVSPKLFI,Binding of Control Serum Blood-Bank to Looped peptides,[1],0.9
same,Binding of Control serum Blood-bank to linear peptides,[1],1.0
same,Binding of Control serum LUMC to linear peptides,[1],0.7
same,Binding of Control serum LUMC to looped peptides,[1],0.9
same,Recognition of the peptide by the rabbit serum,[2],recognized
same,Binding of serum 1a to linear peptides of protein X4 of SARS-CoV Urbani,[3],0.8
same,Binding of serum 1a to looped/cyclic peptides of protein X4 of SARS-CoV Urbani,[3],0.9
same,Binding of serum 1b to linear peptides of protein X4 of SARS-CoV Urbani,[3],0.6
same,Binding of serum 1b to looped/cyclic peptides of protein X4 of SARS-CoV Urbani,[3],0.7
same,Binding of serum 2 to linear peptides of protein X4 of SARS-CoV Urbani,[3],0.7
same,Binding of serum 2 to looped/cyclic peptides of protein X4 of SARS-CoV Urbani,[3],0.8
same,Binding of serum 6 to linear peptides of protein X4 of SARS-CoV Urbani,[3],0.9
same,Binding of serum 6 to looped/cyclic peptides of protein X4 of SARS-CoV Urbani,[3],1.3
same,Binding of serum 37 to linear peptides of protein X4 of SARS-CoV Urbani,[3],0.8
same,Binding of serum 37 to looped/cyclic peptides of protein X4 of SARS-CoV Urbani,[3],0.6
same,Binding of serum 62 to linear peptides of protein X4 of SARS-CoV Urbani,[3],0.9
same,Binding of serum 62 to looped/cyclic peptides of protein X4 of SARS-CoV Urbani,[3],0.8
same,Binding of serum London to linear peptides of protein X4 of SARS-CoV Urbani,[3],0.9
same,Binding of serum London to looped/cyclic peptides of protein X4 of SARS-CoV Urbani,[3],1.4
same,Binding of serum SARS-green to linear peptides of protein X4 of SARS-CoV Urbani,[3],0.7
same,Binding of serum SARS-green to looped/cyclic peptides of protein X4 of SARS-CoV Urbani,[3],0.2
same,Binding of serum SARS-yellow to linear peptides of protein X4 of SARS-CoV Urbani,[3],0.6
same,Binding of serum SARS-yellow to looped/cyclic peptides of protein X4 of SARS-CoV Urbani,[3],0.9
